Results reported in US12077503B2, “Substituted cyclic amides and their use as herbicides” (FMC CORPORATION, priority 2015, dated 2024).
Where two headings read alike, the source gives them in different places.

Tests used:
Assay type in all cases: in vivo
Kochia (Kochia scoparia) = test: Test A preemergence; conditions: Bassia scoparia, pre-emergence, 240 h; for pest or weed control at 125 g/ha: 125 g ai/ha; for pest or weed control at 500 g/ha: 500 g ai/ha
Procedure, shortened: (§1)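 Preemergence directed soil spray on seeded pots, or postemergence application to plants 2–10 cm, one- to two-leaf. Solvent mixture non-phytotoxic, with surfactant. Scored ~10 d later, visually, 0–100 vs untreated.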

[1] = system: barnyardgrass (Echinochloa crus-galli); test: Test A preemergence; conditions: Echinochloa crus-galli, pre-emergence, 240 h; for pest or weed control at 125 g/ha: 125 g ai/ha; for pest or weed control at 500 g/ha: 500 g ai/ha
Procedure, shortened: as §1

[2] = system: giant foxtail (Setaria faberii); test: Test A preemergence; conditions: Setaria faberi, pre-emergence, 240 h; for pest or weed control at 125 g/ha: 125 g ai/ha; for pest or weed control at 500 g/ha: 500 g ai/ha
Procedure, shortened: as §1

[3] = system: pigweed (Amaranthus retroflexus); test: Test A preemergence; conditions: Amaranthus retroflexus, pre-emergence, 240 h; for pest or weed control at 125 g/ha: 125 g ai/ha; for pest or weed control at 500 g/ha: 500 g ai/ha
[4] = system: ragweed (common ragweed, Ambrosia elatior); test: Test A preemergence; conditions: Ambrosia artemisiifolia, pre-emergence, 240 h; for pest or weed control at 125 g/ha: 125 g ai/ha; for pest or weed control at 500 g/ha: 500 g ai/ha
Procedure, shortened: as §1

[5] = system: ryegrass, Italian (Italian ryegrass, Lolium multiflorum); test: Test A preemergence; conditions: Lolium multiflorum, pre-emergence, 240 h; for pest or weed control at 125 g/ha: 125 g ai/ha; for pest or weed control at 500 g/ha: 500 g ai/ha
Procedure, shortened: as §1

[6] = system: blackgrass (Alopecurus myosuroides); test: Test A postemergence; conditions: Alopecurus myosuroides, post-emergence, 240 h, postemergence; for pest or weed control at 125 g/ha: 125 g ai/ha; for pest or weed control at 500 g/ha: 500 g ai/ha
Procedure, shortened: as §1

corn (Zea mays) = test: Test A postemergence; conditions: Zea mays, post-emergence, 240 h, postemergence; for plant injury at 125 g/ha: 125 g ai/ha
Procedure, shortened: as §1

[7] = system: pigweed (Amaranthus retroflexus); test: Test A postemergence; conditions: Amaranthus retroflexus, post-emergence, 240 h, postemergence; for pest or weed control at 125 g/ha: 125 g ai/ha
Procedure, shortened: as §1

[8] = system: ragweed (common ragweed, Ambrosia elatior); test: Test A postemergence; conditions: Ambrosia artemisiifolia, post-emergence, 240 h, postemergence; for pest or weed control at 125 g/ha: 125 g ai/ha
Procedure, shortened: as §1

[9] = system: ryegrass, Italian (Italian ryegrass, Lolium multiflorum); test: Test A postemergence; conditions: Lolium multiflorum, post-emergence, 240 h, postemergence; for pest or weed control at 125 g/ha: 125 g ai/ha
Procedure, shortened: as §1

[10] = system: barnyardgrass (Echinochloa crus-galli); test: Test B flooded paddy test; conditions: Echinochloa crus-galli, 250 g ai/ha, Flood; 0 to 100 scale where 0 is no effect and 100 is complete control; read-out: Barnyardgrass plant response rating
Procedure, shortened: (§2)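 2-leaf plants; pots flooded 3 cm over soil; cpd added to paddy water; depth held; greenhouse 13–15 d; visual rating vs controls, 0 = no effect, 100 = complete control.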

[11] = system: ducksalad (Heteranthera limosa); test: Test B flooded paddy test; conditions: Heteranthera limosa, 250 g ai/ha, Flood; 0 to 100 scale where 0 is no effect and 100 is complete control; read-out: Ducksalad plant response rating
Procedure, shortened: as §2

rice (Oryra sativa) = test: Test B flooded paddy test; conditions: Oryza sativa, 250 g ai/ha, Flood; 0 to 100 scale where 0 is no effect and 100 is complete control; read-out: Rice plant response rating
Procedure, shortened: as §2

[12] = system: sedge, umbrella (small-flower umbrella sedge, Cyperus difformis); test: Test B flooded paddy test; conditions: Cyperus difformis, 250 g ai/ha, Flood; 0 to 100 scale where 0 is no effect and 100 is complete control; read-out: Sedge, Umbrella plant response rating
Procedure, shortened: as §2

Cc1c(F)cccc1NC(=O)[C@H]1C(=O)N(C)C[C@@H]1c1ccc(C(F)(F)F)nc1 [Compound 1197]
30%: pest or weed control at 125 g/ha ([9]; visual injury vs untreated controls after approx. 10 d, 0 = no effect, 100 = complete control, read-out: Ryegrass, Italian plant response rating (0 to 100 scale))
60%: pest or weed control at 500 g/ha ([8]; 500 g ai/ha, 0 to 100 scale, 0 is no effect, 100 is complete control, read-out: Ragweed plant response rating) | pest or weed control at 500 g/ha ([9]; 500 g ai/ha, 0 to 100 scale, 0 is no effect, 100 is complete control, read-out: Ryegrass, Italian plant response rating)
50%: pest or weed control at 125 g/ha ([6]; visual injury vs untreated controls after approx. 10 d, 0 = no effect, 100 = complete control, read-out: Blackgrass plant response rating (0 to 100 scale)) | pest or weed control at 500 g/ha ([6]; 0 to 100 scale, 0 is no effect, 100 is complete control, read-out: Blackgrass plant response rating) | pest or weed control at 125 g/ha ([7]; visual injury vs untreated controls after approx. 10 d, 0 = no effect, 100 = complete control, read-out: Pigweed plant response rating (0 to 100 scale)) | pest or weed control at 125 g/ha ([8]; visual injury vs untreated controls after approx. 10 d, 0 = no effect, 100 = complete control, read-out: Ragweed plant response rating (0 to 100 scale))
70%: pest or weed control at 125 g/ha ([5]; preemergence, visual injury rating, 0 to 100 scale where 0 is no effect and 100 is complete control, approximately 10 d, read-out: Ryegrass, Italian plant response rating) | pest or weed control at 500 g/ha ([5]; preemergence, 0 to 100 scale where 0 is no effect and 100 is complete control, read-out: Ryegrass, Italian plant response rating) | pest or weed control at 500 g/ha ([7]; 500 g ai/ha, 0 to 100 scale, 0 is no effect, 100 is complete control, read-out: Pigweed plant response rating) | pest or weed control at 250 g/ha [10]
80%: pest or weed control at 125 g/ha ([3]; preemergence, visual injury rating, 0 to 100 scale where 0 is no effect and 100 is complete control, approximately 10 d, read-out: Pigweed plant response rating) | pest or weed control at 500 g/ha ([3]; preemergence, 0 to 100 scale where 0 is no effect and 100 is complete control, read-out: Pigweed plant response rating) | plant injury at 125 g/ha (corn (Zea mays); visual injury vs untreated controls after approx. 10 d, 0 = no effect, 100 = complete control, read-out: Corn plant response rating (0 to 100 scale))
100%: pest or weed control at 125 g/ha (Kochia (Kochia scoparia); preemergence, visual injury rating, 0 to 100 scale where 0 is no effect and 100 is complete control, approximately 10 d, read-out: Kochia plant response rating) | pest or weed control at 500 g/ha (Kochia (Kochia scoparia); preemergence, 0 to 100 scale where 0 is no effect and 100 is complete control, read-out: Kochia plant response rating) | pest or weed control at 125 g/ha ([1]; preemergence, visual injury rating, 0 to 100 scale where 0 is no effect and 100 is complete control, approximately 10 d, read-out: Barnyardgrass plant response rating) | pest or weed control at 500 g/ha ([1]; preemergence, 0 to 100 scale where 0 is no effect and 100 is complete control, read-out: Barnyardgrass plant response rating) | pest or weed control at 125 g/ha ([2]; preemergence, visual injury rating, 0 to 100 scale where 0 is no effect and 100 is complete control, approximately 10 d, read-out: Foxtail, Giant plant response rating) | pest or weed control at 500 g/ha ([2]; preemergence, 0 to 100 scale where 0 is no effect and 100 is complete control, read-out: Foxtail, Giant plant response rating) | pest or weed control at 125 g/ha ([4]; preemergence, visual injury rating, 0 to 100 scale where 0 is no effect and 100 is complete control, approximately 10 d, read-out: Ragweed plant response rating) | pest or weed control at 500 g/ha ([4]; preemergence, 0 to 100 scale where 0 is no effect and 100 is complete control, read-out: Ragweed plant response rating) | pest or weed control at 250 g/ha [11]
90%: plant injury at 500 g/ha (corn (Zea mays); 500 g ai/ha, 0 to 100 scale, 0 is no effect, 100 is complete control, read-out: Corn plant response rating)
0%: pest or weed control at 250 g/ha (rice (Oryra sativa)) | pest or weed control at 250 g/ha [12]

CN1CC(c2ccccc2OC(F)(F)C(F)F)C(C(=O)Nc2ccccc2F)C1=O (stereo not shown) [Compound 1053]
0%: pest or weed control at 125 g/ha (Kochia (Kochia scoparia); Preemergence, visual injury rating after approximately 10 d, read-out: Kochia plant response rating (0 to 100 scale, 0 is no effect, 100 is complete control)) | pest or weed control at 500 g/ha (Kochia (Kochia scoparia); preemergence, visual injury rating about 10 d after treatment, 0 to 100 scale (0 no effect, 100 complete control), read-out: Kochia plant response rating) | pest or weed control at 125 g/ha ([1]; Preemergence, visual injury rating after approximately 10 d, read-out: Barnyardgrass plant response rating (0 to 100 scale, 0 is no effect, 100 is complete control)) | pest or weed control at 125 g/ha ([2]; Preemergence, visual injury rating after approximately 10 d, read-out: Foxtail, Giant plant response rating (0 to 100 scale, 0 is no effect, 100 is complete control)) | pest or weed control at 500 g/ha ([2]; preemergence, visual injury rating about 10 d after treatment, 0 to 100 scale (0 no effect, 100 complete control), read-out: Foxtail, Giant plant response rating) | pest or weed control at 125 g/ha ([3]; Preemergence, visual injury rating after approximately 10 d, read-out: Pigweed plant response rating (0 to 100 scale, 0 is no effect, 100 is complete control)) | pest or weed control at 500 g/ha ([3]; preemergence, visual injury rating about 10 d after treatment, 0 to 100 scale (0 no effect, 100 complete control), read-out: Pigweed plant response rating) | pest or weed control at 125 g/ha ([4]; Preemergence, visual injury rating after approximately 10 d, read-out: Ragweed plant response rating (0 to 100 scale, 0 is no effect, 100 is complete control)) | pest or weed control at 500 g/ha ([4]; preemergence, visual injury rating about 10 d after treatment, 0 to 100 scale (0 no effect, 100 complete control), read-out: Ragweed plant response rating) | pest or weed control at 125 g/ha ([5]; Preemergence, visual injury rating after approximately 10 d, read-out: Ryegrass, Italian plant response rating (0 to 100 scale, 0 is no effect, 100 is complete control)) | pest or weed control at 500 g/ha ([5]; preemergence, visual injury rating about 10 d after treatment, 0 to 100 scale (0 no effect, 100 complete control), read-out: Ryegrass, Italian plant response rating) | pest or weed control at 125 g/ha ([6]; visual injury on 0 to 100 scale (0 no effect, 100 complete control), approx. 10 d, read-out: Blackgrass plant response rating) | pest or weed control at 500 g/ha ([6]; visual injury, 0 to 100 scale (0 no effect, 100 complete control), approx. 10 d, read-out: Plant response rating, Blackgrass) | plant injury at 125 g/ha (corn (Zea mays); visual injury on 0 to 100 scale (0 no effect, 100 complete control), approx. 10 d, read-out: Corn plant response rating) | Corn plant response rating (crop injury, 0 = no effect, 100 = complete kill) at 500 g/ha (corn (Zea mays); 500 g ai/ha, visual injury, 0 to 100 scale (0 no effect, 100 complete control), approx. 10 d) | pest or weed control at 125 g/ha ([7]; visual injury on 0 to 100 scale (0 no effect, 100 complete control), approx. 10 d, read-out: Pigweed plant response rating) | pest or weed control at 125 g/ha ([8]; visual injury on 0 to 100 scale (0 no effect, 100 complete control), approx. 10 d, read-out: Ragweed plant response rating) | pest or weed control at 125 g/ha ([9]; visual injury on 0 to 100 scale (0 no effect, 100 complete control), approx. 10 d, read-out: Ryegrass, Italian plant response rating) | pest or weed control at 250 g/ha [10] | pest or weed control at 250 g/ha [11] | pest or weed control at 250 g/ha (rice (Oryra sativa)) | pest or weed control at 250 g/ha [12]
60%: pest or weed control at 500 g/ha ([1]; preemergence, visual injury rating about 10 d after treatment, 0 to 100 scale (0 no effect, 100 complete control), read-out: Barnyardgrass plant response rating)
